According to EP1006112A1, “3-Hydroxy-2(1H)-pyridinone or 3-hydroxy-4(1H)-pyridinone derivatives useful as reactive oxygen species (ROS) scavengers” (Cerebrus Pharmaceuticals Limited, priority 1998, dated 2000):
Counter-ions that a name gives are not always drawn.

How the values were obtained:
[1] = test system: Lipid peroxidation in rat brain homogenates; experiment: Lipid peroxidation assay (ascorbic acid-induced, TBA/MDA readout); format: biochemical; settings: concentration required to inhibit lipid peroxidation by 50%; rat cortex preparation, 500-µM L-ascorbic acid, 37 °C, 30 min
Protocol: Lipid peroxidation in rat brain homogenates is a general procedure used to measure the antioxidant capacity of molecules in a biological environment (Das N.P. and Ratty A.K., Biochem. Med. Metab. Biol, 1987, 37, 256-264).
Rat cortex was homogenised in 20 vols. of ice cold 0.32-M sucrose and centrifuged at 1,000 g for 10 min. The pellet was discarded whilst the resulting supernatant was centrifuged at 15,000 g for 20 min at 4 °C to yield p2 pellets. The pellet was re-suspended in ice-cold 50.0-mM phosphate buffer and centrifuged at 30,000 g for 20 min at 4 °C. The pellet was re-suspended in 30 vols. of 50.0-mM phosphate buffer and used immediately in the assay.
Assays contained 500-µM L-ascorbic acid to induce lipid peroxidation, plus various concentrations of test compound, with the tissue preparation in a total volume of 500 µL. This was incubated at 37 °C for 30 min. Lipid peroxidation was measured by adding to the reaction mixture, 300 µL 40 % (w/v) trichloroacetic acid, 150 µL 5.0-M HCl and 300 µL 2 % (w/v) 2-thiobarbituric acid (TBA). […] The pink colour of the supernatant was assessed spectrophotometrically at a wavelength of 532 nm. The amount of malondialdehyde (MDA) in the samples was calculated using a standard curve prepared with malondialdehyde tetrabutylammonium salt (Das, N.P. and Ratty, A.K. Biochem. Med. Metab. Biol. (1987), 37, 256-264). […]

[2] = test system: cerebellar granule cell (CGC) cultures; experiment: Iodoacetate induced cell toxicity in culture (cell death, MTT-reductase activity); format: cell-based; settings: protection of CGC after 30-µM IAA for 30 min (with 10-µM MK-801), 24 hour incubation with test compound
Protocol: After 6-8 days in culture, cerebellar granule cell (CGC) cultures in 96-well plates (250,000 cells per well) were prepared for hypoglycaemia. lodoacetate (IAA) was made up in a balanced salt solution (BSS) (NaCl, 154.0-mM; KCl, 5.6-mM; MgCl2, 1.0-mM; CaCl2, 2.5-mM; N-[2-hydroxyethyl]piperazine-N'-[2-ethanesulfonic acid] (HEPES), 10.0-mM; D-glucose, 5.6-mM; pH 7.4) and any neuroprotective agents were made up in pre-warmed tissue culture media and allowed to equilibrate in a controlled environment (5 % CO2, 95 % air). The assay was initiated by aspiration of the maintenance media, which was replaced by either BSS (control) or 30-µM IAA in BSS, both solutions containing 10-µM of the NMDA receptor antagonist MK-801. The exposure to IAA was for 30 min only at 37 °C, after which time the BSS was aspirated and replaced with fresh, pre-equilibriated maintenance media containing various concentrations of test compound. All conditions were performed at least in duplicate in each 96 well plate. The final volume for each well was always 200 µL. Following a 24 hour incubation, visual inspection of the cells was followed by quantification of neuronal cell death by measuring 3-[4,5-dimethylthiazol-2-yl]-2,5-diphenyltetrazolium bromide (MTT)-reductase activity as described previously (Malcolm et al., J. Neurochem. 1996, 66, 2350-2360).

IC50 [1] | SMILES | EC50 [2]
1.5 µM | COc1ccc2[nH]cc(CCNC(=O)CCn3ccc(=O)c(O)c3C)c2c1 [Example 1, 3-(1,4-Dihydro-3-hydroxy-2-methyl-4-oxo-1-pyridinyl)-N-(2-(5-methoxy-3-indolyl)ethyl)propanamide mesylate] | 4.9 µM
2 µM | COc1ccc2[nH]cc(CCn3ccc(=O)c(O)c3C)c2c1 [Example 2, 3-Hydroxy-1-(2-(5-methoxy-3-indolyl)ethyl)-2-methyl-4(1H)-pyridinone] | 11.9 µM
